The test system of one test is PTEN−/− and PTEN+/+ MEFs. Briefly: Viability of PTEN−/− and PTEN+/+ MEFs (PI exclusion). It counts as cell-based, mouse. The conditions noted are these: 5 μM each, 1% FBS. On the procedure: MEFs were treated with 5 μM each of II-4 and CQ under 1% FBS, and cell viability was determined at days 0, 2, and 3 by PI exclusion. Error bars represent SEM (n=3). (B) Mean tumor volumes of PC3 xenograft tumors treated daily with vehicle (Veh), Dox only, CQ only, or both Dox and CQ over a 28-d period. The vehicle and vehicle+CQ groups were followed for up to 18 d before terminated because of weight loss from the tumor burdens. Error bars represent SEM (n=10 tumors in each cohort). (C) Scatterplot of the tumor volumes in the Dox only and Dox+CQ groups on day 28 (P=0.05). Horizontal bars indicate mean tumor volumes. Numbers of tumors with complete remission (CR, dashed line) are indicated for each group. […]
Cell viability and cell cycle analysis. Cell number and viability was measured using trypan blue exclusion assay using a Vi-Cell Analyzer (Beckman Coulter), or labeled with 1 μg/ml PI in PBS/1% BSA followed by cytofluorometric analysis with a fluorescence-activated cell sorter (FACS) (Becton Dickinson). […] Caspase activation was analyzed using a Caspase-Glo 3/7 Assay kit (Promega). For cell cycle analysis, cells were fixed with drop-wise addition of chilled 70% ethanol, washed with PBS and resuspended in staining solution containing 50 μg/ml PI and 60 units of RNAse A. DNA content was analyzed by flow cytometry using the FlowJo and ModFit software (Becton Dickinson).

Test [1] relates to PC3 cells. Briefly: Mitochondrial superoxide (MitoSOX red) and cellular ROS in PC3 cells. It counts as cell-based, human.
Method: (B) PC3 cells treated as in A were stained with the Image-iT LIVE green ROS Detection kit and examined by fluorescence microscopy at 24 h. […] (C) Quantification of MitoSOX red and ROS green fluorescence intensities by flow cytometry at 24 h. Cells were treated as in A and B. Error bars represent SEM (n=3).
Because mitochondria are the primary intracellular source of superoxide (O2^−) generation, we analyzed O2^− production using MitoSOX red, an O2^− indicator that accumulates in the mitochondria as a function of membrane potential and fluoresces upon oxidation and subsequent binding to DNA.
Test [2] relates to PC3 cells. Briefly: Microarray analysis of autophagy gene expression in PC3 cells. To be noted: 1 or 5 μM for 6 or 24 hours, normalized to DMSO. Type of test: cell-based, human. The method, then:
PC3 cells were induced to express shRNA to indicated Akt isoforms for 72 hours by Doxycycline, RNA was extracted from both Dox treated (Dox+) or untreated control (Dox−) cells. Microarray analysis was carried out using Affymetrix chips. Ratios of the expression levels of each autophagy gene from Dox+ and Dox− samples are shown. Data are mean values from 3 independent experiments.
RNA was extracted from the cells. Microarray analysis was carried out using Affymetrix chips. Expression levels of each autophagy gene are normalized to the DMSO controls. Data are mean values from 3 independent experiments.

Test [3] deals with PC3 cells. Briefly: Mitochondrial membrane potential (MitoPT dye) in PC3 cells. It counts as cell-based, human. To be noted: for mitochondrial membrane potential, II-4 (Akti-1/2) and CQ: 3 μM Akti-1/2, 10 μM CQ. The method, then:
FIG. 21. […] Images at 48 h are shown. […] Merged images between red and green channels are also shown (MitoPT-M). Scale bar: 20 μm. (B) Percentage of cells showing red punctate stains and diffuse green stains from treatments described in (A). >86 cells from two random fields of fluorescent images of each treatment were counted. Error bars represent standard deviations between the two fields. […] Total fluorescence intensity from all cells was collected using the Isocyte (Blueshift Biotechnologies), a laser scanning imager. Green fluorescence intensity is collected with a 488 nm laser and a 510-540 nm band pass filter, and normalized to cell number determined by Hoechst staining using a 405 nm laser and a 430-480 nm band pass filter. Error bars, standard deviation between two independent experiments. (D) Representative images of the green ROS signals and bright field (BF) taken under a Nikon TE300 inverted microscope. […] Scale bar: 20 μm.
Cell Culture and Reagents: The PTEN^−/− and PTEN^+/+ MEFs were maintained as previously described (Sun, H., R. Lesche, D. M. Li, J. Liliental, H. Zhang, J. Gao, N. Gavrilova, B. Mueller, X. Liu, and H. Wu, (1999), PTEN modulates cell cycle progression and cell survival by regulating phosphatidylinositol 3,4,5,-trisphosphate and Akt/protein kinase B signaling pathway. Proc Natl Acad Sci USA. 96:6199-204). The PC3 and U87MG cells were maintained at 37° C. and 5% CO2 in DMEM/Ham's F-12 (1:1) containing 10% tetracycline-free fetal bovine serum. II-4 was from Calbiochem (Akt inhibitor VIII) (Barnett, S. F., D. Defeo-Jones, S. Fu, P. J. Hancock, K. M. Haskell, R. E. Jones, J. A. Kahana, A. M. Kral, K. Leander, L. L. Lee, J. Malinowski, E. M. McAvoy, D. D. Nahas, R. G. Robinson, and H. E. Huber, (2005), Identification and characterization of pleckstrin-homology-domain-dependent and isoenzyme-specific Akt inhibitors. Biochem J. 385:399-408). […] Image-iT LIVE Green Reactive Oxygen Species Detection Kit was purchased from Molecular Probes. MitoPT Mitochondria Permeability Transition Detection Kit was purchased from Immunochemistry Technologies, LLC.

A further test deals with Akt. Briefly: Immunoblot of Akt and S6 phosphorylation in PC3 cells. It counts as cell-based, human. To be noted: II-4 alone. An excerpt:
Western blot analysis, immunofluorescence, 1HC and TUNEL assay: For Western blot analysis, total protein lysates were subjected to SDS-PAGE and transferred to nitrocellulose. Antibodies used were: anti-Akt1, anti-Akt2, anti-Akt3, anti-total-Akt, anti-p-Akt (Ser473), anti-p-Akt (Thr308), anti-p-S6 (Ser235/236), anti-PARP and anti-cleaved caspase-3 (Cell Signaling Technology); anti-p-PRAS40 (Invitrogen); anti-p27^Kip1 (Santa Cruz Biotechnology); anti-LC3 (Novus); anti-LAMP2 and anti-Cathepsin D (BD Biosciences); and anti-GAPDH (Advanced Immunochemical Inc.). Primary antibodies were detected using IR Dye 800-conjugated (Rockland) and Alexa-Fluoro 680-conjugated (Molecular Probes) species-selective secondary antibodies. Detection and quantification were performed using an Odyssey infrared scanner (LICOR) using the manufacturer's software. For immunofluorescence staining, cells were fixed in 3% paraformaldehyde and permeabilized with 0.01% digitonin in PBS, followed by a rabbit polyclonal anti-LC3 (Abgent) primary antibody detected with a cy3-conjugated anti-rabbit secondary antibody (Jackson Immunoresearch). For IHC, formalin-fixed, paraffin-embedded specimens were collected. 5-μm-thick paraffin-embedded sections were stained using an anti-Ki-67 (MIB-1, DakoCytomation) antibody with the Dako ARK kit (Dako Corporation). Tissues were counterstained with haematoxylin, dehydrated, and mounted. In all cases, antigen retrieval was performed with the Dako Target Retrieval Kit as per manufacturer's instructions. For TUNEL assay, formalin-fixed, paraffin-embedded sections were stained using an in situ cell death detection kit (POD; Roche Diagnostic) according to the manufacturer's instructions.

Like-named read-outs stand apart in the source and are kept apart here.

As to `O=c1[nH]c2ccccc2n1C1CCN(Cc2ccc(-c3nc4cc5nc[nH]c5cc4nc3-c3ccccc3)cc2)CC1` [II-4, 1-(1-(4-(7-phenyl-1H-imidazo[4,5-g]quinoxalin-6-yl)benzyl)piperidin-4-yl)-1H-benzo[d]imidazol-2 (3H)-one], in the test with PTEN−/− and PTEN+/+ MEFs, the “sensitivity of PTEN−/− vs PTEN+/+ MEFs to combined II-4 and CQ” value is recorded as “significantly more sensitive”. In the test with PC3 cells [1], the “MitoSOX fluorescence, agent alone” value was “increased MitoSOX fluorescence within 6 h”; the “cellular ROS levels, II-4 (Akti-1/2) with CQ” value was “cotreatment with CQ caused a prolonged increase in ROS levels”; the “cellular ROS signal, agent alone” value is “attenuated within 48 h”. The “MitoSOX fluorescence, II-4 and CQ” value with PC3 cells [1] (3 μM II-4, 10 μM CQ) is on record as “significant increase in fluorescence intensity”. In addition, in the test with PC3 cells [1] (listed as Akti-1/2), the “cellular ROS levels, II-4 (Akti-1/2) with CQ” value was “caused a prolonged increase in vacuolar fluorescence” and the “cellular ROS signal, agent alone” value is given as “first induced a homogeneous increase in ROS level, but by 48 hours the fluorescence became significantly reduced”. In addition, in the test on PC3 cells [2], the autophagy gene expression entry is given as “induce autophagy gene expression”. The “mitochondrial membrane potential, II-4 (Akti-1/2) and CQ” value in the test with PC3 cells [3] is recorded as “almost complete loss of mitochondrial potential”. Further, the “mitochondrial membrane potential, II-4 (Akti-1/2) and CQ” value in the test on PC3 cells [3] (listed as Akti-1/2) was “CQ enhanced Akti-1/2-induced mitochondria depolarization”. Further, in the test on PC3 cells [3] (0.5% FBS), the “mitochondrial membrane potential, agent alone” value is “caused a decrease in mitochondrial membrane potential”. Also, in the test with Akt, the “phosphorylation of Akt on Ser473 and Thr308” value is “effectively inhibited the phosphorylation of Akt on both Ser473 and Thr308 residues”; the “phosphorylation of downstream target S6” value is recorded as “significantly reduced the phosphorylation of downstream target S6”.
